Measurements from US20250090472A1, “LIPID NANOPARTICLE COMPOSITIONS AND USES THEREOF” (BEIJING JITAI PHARMACEUTICAL TECHNOLOGY CO., LTD., priority 2023, published 2025).

System: C57BL/6 mice
Experiment: In vivo bioluminescence assay of LNPs encapsulating luciferase mRNA (without permanently cationic lipid)
Settings: intravenous single dose 0.5 mg/kg luciferase mRNA, 6 h after administration, group mean
Method: The delivery effect and safety of nanoparticles encapsulated with luciferase mRNA (Trilink, L-7202) in mice were evaluated. The test mice were SPF-grade C57BL/6 mice, female, 6-8 weeks old, weighing 18-22 g, and were purchased from SPF (Beijing) Biotechnology Co., Ltd. All animals were acclimatized for more than 7 days prior to the experiment, and had free access to food and water during the experiment. The conditions include alternating light and dark for 12/12 h, the indoor temperature of 20-26° C. and the humidity of 40-70%. The mice were randomly grouped. The lipid nanoparticles encapsulated with luciferase mRNA prepared above were injected into mice by intravenous administration at a single dose of 0.5 mg/kg mRNA, and the mice were subjected to in vivo bioluminescence assay using a Small Animal In Vivo Imaging System (IVIS LUMINA III, purchased from PerkinElmer) at 6 h after administration. The assay was performed as follows: D-luciferin solution was prepared in saline at a concentration of 15 mg/mL, and each mouse was given the substrate by intraperitoneal injection. At ten minutes after administration of the substrate, the mice were anesthetized in an anesthesia chamber with isoflurane at a concentration of 2.5%. The anesthetized mice were placed in IVIS for luminescent imaging. Data acquisition and analysis were performed on the concentrated distribution area of luminescence.
The in vivo delivery efficiency of lipid nanoparticle carriers was expressed as the mean values of fluorescence intensity and total photon count in different animals measured at 6 hours after administration of the lipid nanoparticle within the same subject group, as shown in Table 4. Higher values of fluorescence intensity and total photon count indicate higher in vivo delivery efficiency of this mRNA fragment by the lipid nanoparticles.

For `CCCCCCCCCCOC(=O)C(C)(C)CCCCCC(CCCCCC(C)(C)C(=O)OCCCCCCCCCC)OC(=O)CCN(C)C` [Compound 1], the “Total photon count in vivo (Total Flux)” value was 6.43E+08.
In the case of `CCCCCCCCN(CCCCCCCC)CCOC(=O)C(C)(C)CCCCCC(CCCCCC(C)(C)C(=O)OCCN(CCCCCCCC)CCCCCCCC)OC(=O)CCN(C)C` [Compound 15], the “Total photon count in vivo (Total Flux)” value is reported as 4.89E+08.
In the case of `CCCCCCC#CCCOC(=O)C(C)(C)CCCCCC(CCCCCC(C)(C)C(=O)OCCC#CCCCCCC)OC(=O)CCCN(C)C` [Compound 24], the “Total photon count in vivo (Total Flux)” value is reported as 5.56E+09.
In the case of `CCCCCCCCCOC(=O)CC(C)(C)CCCCC(CCCCC(C)(C)CC(=O)OCCCCCCCCC)OC(=O)CCCN(C)C` [Compound 97], the “Total photon count in vivo (Total Flux)” value is reported as 3.37E+09.
`CCCCCCCCCCOC(=O)C(C)(C)CCCCCC(CCCCCC(C)(C)C(=O)OCCCCCCCCCC)OC(=O)C1CCN(C)CC1` [Compound 99] was tested, and the “Total photon count in vivo (Total Flux)” value was 5.30E+09.
With `CCCCCCCCCSC(=O)C(C)(C)CCCCCC(CCCCCC(C)(C)C(=O)SCCCCCCCCC)OC(=O)CC1CCN(CCO)CC1` [Compound 110] the “Total photon count in vivo (Total Flux)” value was 2.06E+08.
For `CCCCCCCCCOC(=O)C(C)(C)CCCCCC(CCCCCC(C)(C)C(=O)OCCCCCCCCC)OC(=O)CC1CCN(CCO)CC1` [Compound 113], the “Total photon count in vivo (Total Flux)” value was 3.59E+08.
With `CCCCCCCCCOC(=O)C(C)(C)CCCCCC(CCCCCC(C)(C)C(=O)OCC(CCCCC)CCCCCCC)OC(=O)CC1CCN(CCO)CC1` (centres unmarked) [Compound 114] the “Total photon count in vivo (Total Flux)” value was 1.06E+08.
In the case of `CCCCCCCCCSC(=O)C(C)(C)CCCCCC(CCCCCC(C)(C)C(=O)OCC#CCCC(CCCC)CCCC)OC(=O)CCCN(C)C` (centres unmarked) [Compound 119], the “Total photon count in vivo (Total Flux)” value is reported as 3.25E+10.
`CC(C)CCCCCCCOC(=O)CCC(C)(C)CCCC(CCCC(C)(C)CCC(=O)OCCCCCCCC(C)C)OC(=O)CCCN(C)C` [Compound 127] was tested, and the “Total photon count in vivo (Total Flux)” value was 3.59E+10.
In the case of `CCCCC/C=C\C/C=C\CCCCCCCCC(CCCCCCCC/C=C\C/C=C\CCCCC)OC(=O)CCCN(C)C` [Dlin-MC3-DMA, reference compound], the “Total photon count in vivo (Total Flux)” value is reported as 8.04E+09.
